Columns and labels:
[1] = Stability in mouse brain homogenate; type: in vitro ADME, male CD-1 mice; settings: mouse brain homogenate, 1 μM, 37° C.; for half-life at 1 µM: male, CD-1
[2] = tested on: monoamine oxidase A and B (MAO-A and MAO-B); experiment: Stability in the presence of monoamine oxidases (human liver mitochondria preparation); design: half-life / microsomal CLint: dose or concentration left out as unconfirmed; settings: for stability in the presence of MAO (in words): human liver mitochondria preparation; for Remaining (t = 60 min) / half-life / microsomal CLint: human liver mitochondria; for half-life / microsomal CLint: human, pH 7.4
Procedure: Liver Mitochondria Incubations. Human liver mitochondria (Xenotech H0610.M) were used.

[3] = Plasma pharmacokinetics in mice after subcutaneous administration; type: in vivo, male C57BL/6 mice; settings: plasma, male C57BL/6 mice, SC 10 mg/kg
Excerpt: Animals. […] Four mice were housed in each cage. […] All animals were provided laboratory rodent diet. […] Animals were randomly assigned to treatment groups.

rat synaptosomes = experiment: Serotonin (5-HT) release from rat synaptosomes; type: biochemical, Male Sprague-Dawley rats; settings: for EC50: rat synaptosomes preloaded with [3H]5-HT; for % Release @ Max Dose (10 μM) / 5-HT release potency/efficacy compared with analog (in words): rat synaptosomes
Procedure: Disclosed compounds were assessed for their ability to release serotonin (5-HT) from […] (Table 9). Potency and efficacy for 5-HT release varied substantially depending on the specific compound. […] However, there was also substantial variability among 4-hydroxy compounds.
Synaptosome 5-HT Release Assay. Synaptosome release assays were conducted according to modifications of previously described procedures (Partilla et al. (2016). Interrogating the Activity of Ligands at Monoamine Transporters in Rat Brain Synaptosomes. In Neurotransmitter Transporters (pp. 41-52). Springer.). Briefly, synaptosomes were prepared from rat brains. Male Sprague-Dawley rats were rendered unconscious with CO2 and their brains were immediately removed. The cerebella were discarded and the whole brains (minus striatum) were placed in ice-cold 0.32 M sucrose (10 mL per brain) and gently homogenized by hand. The homogenate of each brain was centrifuged at 1,000×g at 4° C. for 10 mins and the resulting supernatant was diluted with ice-cold 0.32 M sucrose to a total volume of 10 mL to provide the synaptosome solution. Synaptosomes were then preloaded with 5 nM [^3H]5-HT in the presence of selective uptake inhibitors of DAT (50 nM GBR12935), NET (100 nM nomifensine), and VMAT2 (1 μM reserpine) in Krebs phosphate buffer (KPB). The incubations were allowed to reach equilibrium for 2 h at 25° C. For the release reactions, 425 μL of preloaded synaptosomes were added to test tubes containing 75 μL of test drugs diluted in KPB containing 1 mg/mL BSA. After 10 mins, the release reaction was stopped using a cell harvester by rapid vacuum filtration over GF/B filter paper presoaked in wash buffer (10 mM Tris-HCl, pH 7.4, 150 mM NaCl) and the filters were washed with additional wash buffer. Filters were dried for 1 h at 60° C. and retained radioactivity was quantified using a MicroBeta 2 liquid scintillation counter. The amount of retained radioactivity was inversely proportional to the extent of release.

[4] = human liver mitochondria 0.30 mg protein/mL, 37° C.

Row | Structure (SMILES) | t1/2 [1] | % Compound Remaining (after 120 min) [1] | CLint(MAO) [2, 4] | t1/2 [2, 4] | stability in the presence of MAO (in words) [2] | Remaining (t = 60 min) [2] | AUC(0-t) ([3]; mouse) | Cmax ([3]; mouse) | Tmax [3] | t1/2 [3] | EC50 (rat synaptosomes) | % Release @ Max Dose (10 μM) (rat synaptosomes) | half-life at 1 µM [1] | half-life [2] | microsomal CLint [2] | 5-HT release potency/efficacy compared with analog (in words) (rat synaptosomes)
1 | CN(C)CCc1c[nH]c2ccc(F)cc12 [Compound 5-F-DMT, reference compound] | 3.1 min | 0.0% | 266 µL/min/mg | 8.7 min | rapidly metabolized by MAO | 0.9% | 0.247 µg·h/mL | 0.363 µg/mL | 15 min | 16.2 min | 0.0407 µM | 81.44% |  |  |  | 
2 | CCNCCc1c[nH]c2ccc(F)c(O)c12 [Compound 28, 3-(2-(ethylamino)ethyl)-5-fluoro-1H-indol-4-ol] |  | 1.9% |  |  | intermediate stability | 46.4% |  |  |  |  | 0.708 µM | 73.6% | 22.1 min | 56.5 min | 40.9 µL/min/mg | significantly more potent and efficacious than their non-fluorinated analogs
3 | CC(C)NCCc1c[nH]c2ccc(F)c(O)c12 [Compound 35, 5-fluoro-3-(2-(isopropylamino)ethyl)-1H-indol-4-ol] |  | 40% |  |  | intermediate stability | 22.8% |  |  |  |  | 6.94 µM | 53.2% | 90.5 min | 29 min | 79.6 µL/min/mg | significantly more potent and efficacious than their non-fluorinated analogs

Reference: patent publication US20260234107A1, “TRYPTAMINES AND METHODS OF TREATING MOOD DISORDERS” (priority 2022, published 2026)
